Measured values taken from patent publication US20190231844A1, “ORAL APPLICATION OF THIOPEPTCIN” (NANJING BIOTICA PHARMACEUTICAL COMPANY, priority 2015, published 2019).
Converted amounts (≈) assume the structure as drawn.

Tests used:
[1] = system: Reduced-sensitivity strain to Metronidazole C. difficile LCN 0048; test: MIC by broth dilution method (CLSI M11-A7); type: cell-based; conditions: Clostridioides difficile
C. difficile ATCC 9689 = test: MIC by broth dilution method (CLSI M11-A7); type: cell-based; conditions: Clostridioides difficile, ATCC9689, read-out: Sensitivity of C. difficile (MIC)
[2] = system: Erythrocin-resistant strain C. difficile LCN 0081; test: MIC by broth dilution method (CLSI M11-A7); type: cell-based; conditions: Clostridioides difficile, read-out: Sensitivity of C. difficile (MIC)
[3] = Pharmacokinetics of thiopeptcin after oral (intragastric) administration, plasma by LC-MS/MS; type: in vivo; conditions: after intragastric administration in rats, all doses and time points
Procedure: 30 μl of blood or urine sample was added into 90 μl of methanol containing 5 ng/ml verapamil. After vortexing for 3 min and centrifuging at 14,000 rpm for 5 min, 80 μl of supernatant was taken for LC-MS/MS analysis.
Conditions for LC were as follows: • Column: Waters Symmetry 300 C18 3.5 μm 2.1*100 mm; • Mobile phase A: 10 mM ammonium acetate+0.02% aqueous ammonia solution; mobile phase B: methanol; • Duration of analysis: 5.2 min; injection volume: 5 μL; column temperature: 25° C.; gradient elution:
Conditions for MS/MS analysis were as follows: • Mass Spectrometer: Positive Ion Mode (Agilent 6460B) • Detection of ion pairs: Thiopeptcin: 1437.3-172.0, fragment=135, CE=22; • Verapamil (internal standard): 455.2→165.1, fragment=135, CE=25; • Mass spectrometry parameters: gas temp at 350 ° C.; gas flow at 10 L/min; nebulizer of 40 psi; sheath gas flow at 10 L/min and sheath gas heater at 400° C.
Preparation of thiopeptcin: Certain amount of thiopeptcin was dissolved in a mixed solvent of pH 5.0 containing 10% PEG400, 1% Tween 80 and 5 mg/ml citric acid. The solution was shaken to be clear for intragastric administration.
Male rats were divided into 4 groups with high, medium, and low doses according to experimental purposes. The high dose group was 50 mg/kg, the middle dose group was 25 mg/kg, the low-1 dose group was 5 mg/kg and the low-2 dose group was 1 mg/kg. […]

[4] = system: Clindamycin-resistant strain C. difficile LCN 0027; test: MIC by broth dilution method (CLSI M11-A7); type: cell-based; conditions: Clostridioides difficile, read-out: Sensitivity of C. difficile (MIC)
[5] = system: Reduced-sensitivity strain to Vancomycin C. difficile LCN 0012; test: MIC by broth dilution method (CLSI M11-A7); type: cell-based; conditions: Clostridioides difficile
[6] = system: clinically isolated strain LCN 001; test: MIC by broth dilution method (CLSI M11-A7); type: cell-based; conditions: Clostridioides difficile, LCN001, read-out: Sensitivity of C. difficile (MIC)

plasma concentration of thiopeptcin (below limit of quantification) [3] [ng/mL] | SMILES | MIC [1] [µg/mL] | MIC (C. difficile ATCC 9689) [µg/mL] | MIC [2] [µg/mL] | MIC [4] [µg/mL] | MIC [5] [µg/mL] | MIC [6] [µg/mL]
< 1 | C=C(NC(=O)c1csc(-c2nc3c(cc2O)-c2nc(cs2)C(=O)N[C@@H]([C@@H](C)O)C(=O)N/C(=C(\C)OC)c2nc(cs2)C(=O)N[C@@H]2c4nc(cs4)C(=O)N[C@@H](COC(=O)c4c5c6c(cccc6n4O)COC(=O)[C@@H](OC4C[C@](C)(O)[C@H](N(C)C)[C@H](C)O4)C2OC5)c2nc-3cs2)n1)C(N)=O (stereo partly shown) [Thiopeptcin] | 0.005 to 0.01 (≈ 0.00348 to 0.00696 µM) | 0.005 (≈ 0.00348 µM) | 0.005 (≈ 0.00348 µM) | 0.025 (≈ 0.0174 µM) | 0.025 to 0.05 (≈ 0.0174 to 0.0348 µM) | 0.025 (≈ 0.0174 µM)
– | CN[C@H](CC(C)C)C(=O)N[C@H]1C(=O)N[C@@H](CC(N)=O)C(=O)N[C@H]2C(=O)N[C@H]3C(=O)N[C@H](C(=O)N[C@H](C(=O)O)c4cc(O)cc(O)c4-c4cc3ccc4O)[C@H](O)c3ccc(c(Cl)c3)Oc3cc2cc(c3O[C@@H]2O[C@H](CO)[C@@H](O)[C@H](O)[C@H]2O[C@H]2C[C@](C)(N)[C@H](O)[C@H](C)O2)Oc2ccc(cc2Cl)[C@H]1O [Vancomycin, reference compound] | 0.8 to 3 (≈ 0.552 to 2.07 µM) | 0.25 (≈ 0.173 µM) | 1.5 (≈ 1.04 µM) | 1.5 (≈ 1.04 µM) | 4 to 8 (≈ 2.76 to 5.52 µM) | 0.5 (≈ 0.345 µM)
